Experimental data taken from patent US9115101B2 (Genentech, Inc., priority 2012, dated 2015).

These molecules were tested against T1, RORc ligand binding domain (Homo sapiens, UniProt P51449) (assay: In Vitro RORc Ligand Binding Assay (25-[3H]hydroxycholesterol radioligand filtration)). Details: In Vitro RORc Ligand Binding Assay; Table 4; read-out: RORc IC50.
T1 construct: host or cells: E. coli
T1 sequence (P51449 269-508 limits assumed): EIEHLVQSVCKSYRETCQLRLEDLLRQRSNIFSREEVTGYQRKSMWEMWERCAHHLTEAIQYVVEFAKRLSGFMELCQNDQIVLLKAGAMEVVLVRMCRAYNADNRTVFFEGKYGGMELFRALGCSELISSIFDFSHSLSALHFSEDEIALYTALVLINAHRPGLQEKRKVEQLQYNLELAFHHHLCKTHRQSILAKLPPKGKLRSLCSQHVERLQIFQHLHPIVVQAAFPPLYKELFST
Work on `CC(=O)N1CCN(c2ccc(CN3CC4(CC4)CC(c4ccccc4)S3(=O)=O)c(F)c2)CC1` (single isomer, unassigned) [Example 199, 1-{4-[4-(6,6-Dioxo-7-phenyl-6-thia-5-aza-spiro[2.5]oct-5-ylmethyl)-3-fluoro-phenyl]-piperazin-1-yl}-ethanone] yielded an IC50 of 14 nM. `CC(=O)N1CCN(c2ccc(CN3[C@@H](C)CCC(c4cccc(Cl)c4)S3(=O)=O)c(F)c2)CC1` (single isomer, unassigned) [Example 200] was tested, and the IC50 was 17 nM. Work on `CC(=O)N1CCN(c2ccc(CN3[C@@H](C)CCC(c4ccccc4Cl)S3(=O)=O)c(F)c2)CC1` (single isomer, unassigned) [Example 201] yielded an IC50 of 183 nM. `CC(=O)N1CCN(c2ccc(CN3[C@@H](C)CCC(c4cccc(C#N)c4)S3(=O)=O)c(F)c2)CC1` (single isomer, unassigned) [Example 202] was tested, and the IC50 was 738 nM. For `CC(=O)N1CCN(c2ccc(CN3[C@@H](C)CCC(c4cccc(C#N)c4)S3(=O)=O)c(F)c2)CC1` (single isomer, unassigned) [Example 203], the IC50 was 206 nM. `CC(=O)N1CCN(c2ccc(CN3[C@@H](C)CC[C@@H](c4ccccc4Cl)S3(=O)=O)c(F)c2)CC1` (single isomer, unassigned) [Example 204] showed an IC50 of 52 nM. `CC(=O)N1CCN(c2ccc(CN3[C@@H](C)CCC(c4ccccc4C)S3(=O)=O)c(F)c2)CC1` (single isomer, unassigned) [Example 205] showed an IC50 of 307 nM. With `CC(=O)N1CCN(c2ccc(CN3[C@@H](C)CCC(c4ccccc4C)S3(=O)=O)c(F)c2)CC1` (single isomer, unassigned) [Example 206] the IC50 was 14 nM. With `CC(=O)N1CCN(c2ccc(CN3[C@@H](C)CCC(c4ccccc4C#N)S3(=O)=O)c(F)c2)CC1` (single isomer, unassigned) [Example 207] the IC50 was 1810 nM. `CC(=O)N1CCN(c2ccc(CN3[C@@H](C)CCC(c4ccccc4C#N)S3(=O)=O)c(F)c2)CC1` (single isomer, unassigned) [Example 208] was tested, and the IC50 was 32 nM. For `C[C@H]1CCC(c2ccccc2)S(=O)(=O)N1Cc1ccc(N2CCC(c3ccn[nH]3)CC2)cc1F` (single isomer, unassigned) [Example 211], the IC50 was 20 nM. In the case of `C[C@H]1CCC(c2ccccc2)S(=O)(=O)N1Cc1ccc(N2CCC(c3ccn[nH]3)CC2)cc1F` (single isomer, unassigned) [Example 212], the IC50 is reported as 16 nM. Work on `C[C@H]1CCC(c2ccccc2)S(=O)(=O)N1Cc1ccc(N2CCC(n3cnnc3)CC2)cc1` (single isomer, unassigned) [Example 213] yielded an IC50 of 75 nM. `C[C@H]1CCC(c2ccccc2)S(=O)(=O)N1Cc1ccc(N2CCC(n3cnnc3)CC2)cc1` (single isomer, unassigned) [Example 214] was tested, and the IC50 was 239 nM. With `C[C@H]1CCC(c2ccccc2)S(=O)(=O)N1Cc1ccc(N2CCC(n3ccnn3)CC2)cc1F` (single isomer, unassigned) [Example 218] the IC50 was 11 nM. `C[C@H]1CCC(c2ccccc2)S(=O)(=O)N1Cc1ccc(N2CCC(c3ncno3)CC2)cc1F` (single isomer, unassigned) [Example 219] gave an IC50 of 42 nM. `C[C@H]1CCC(c2ccccc2)S(=O)(=O)N1Cc1ccc(N2CCC(c3ncno3)CC2)cc1F` (single isomer, unassigned) [Example 220] was tested, and the IC50 was 43 nM. For `C[C@H]1CCC(c2ccccc2)S(=O)(=O)N1Cc1ccc(N2CCC(C(N)=O)CC2)cc1F` (single isomer, unassigned) [Example 221], the IC50 was 85 nM. `COc1ccccc1C1CC[C@H](C)N(Cc2ccc(N3CCN(C(C)=O)CC3)cc2F)S1(=O)=O` (single isomer, unassigned) [Example 223] gave an IC50 of 135 nM. With `COc1ccccc1C1CC[C@H](C)N(Cc2ccc(N3CCN(C(C)=O)CC3)cc2F)S1(=O)=O` (single isomer, unassigned) [Example 224] the IC50 was 62 nM. Molecule `C[C@H]1CCC(c2ccccc2)S(=O)(=O)N1Cc1ccc(N2CCC(c3nnc[nH]3)CC2)cc1F` (single isomer, unassigned) [Example 225] has an IC50 of 150 nM. In the case of `C[C@H]1CCC(c2ccccc2)S(=O)(=O)N1Cc1ccc(N2CCC(c3nnc[nH]3)CC2)cc1F` (single isomer, unassigned) [Example 226], the IC50 is reported as 281 nM. `CC[C@H]1CCC(c2ccccc2)S(=O)(=O)N1Cc1ccc(N2CCC(n3cnnc3)CC2)cc1F` (single isomer, unassigned) [Example 228] gave an IC50 of 21 nM. Molecule `CC[C@H]1CCC(c2ccccc2)S(=O)(=O)N1Cc1ccc(N2CCC(n3cnnc3)CC2)cc1F` (single isomer, unassigned) [Example 229] has an IC50 of 168 nM. Work on `CC[C@H]1CCC(c2ccccc2)S(=O)(=O)N1Cc1ccc(NC2CCN(S(C)(=O)=O)CC2)cc1F` (single isomer, unassigned) [Example 239] yielded an IC50 of 3 nM. Work on `CC[C@H]1CCC(c2ccccc2)S(=O)(=O)N1Cc1ccc(NC2CCN(S(C)(=O)=O)CC2)cc1F` (single isomer, unassigned) [Example 240] yielded an IC50 of 4 nM. In the case of `C[C@H]1CCC(c2ccccc2)S(=O)(=O)N1Cc1ccc(N2CCC(c3cn[nH]c3)CC2)cc1F` (single isomer, unassigned) [Example 242], the IC50 is reported as 4 nM. Work on `C[C@H]1CCC(c2ccccc2)S(=O)(=O)N1Cc1ccc(N2CCC(c3cn[nH]c3)CC2)cc1F` (single isomer, unassigned) [Example 243] yielded an IC50 of 3 nM. For `C[C@H]1CCC(c2ccccc2)S(=O)(=O)N1Cc1ccc(N2CCC(n3ncnn3)CC2)cc1F` (single isomer, unassigned) [Example 244], the IC50 was 24 nM. Work on `CC(=O)N1CCN(c2ccc(CN3[C@@H](C(C)C)CCC(c4ccccc4)S3(=O)=O)c(F)c2)CC1` (single isomer, unassigned) [Example 246] yielded an IC50 of 30 nM. For `CC(=O)N1CCN(c2ccc(CN3[C@@H](C(C)C)CCC(c4ccccc4)S3(=O)=O)c(F)c2)CC1` (single isomer, unassigned) [Example 247], the IC50 was 29 nM. `CC(=O)N1CCN(c2ccc(CN3C4CCCC4CC(c4ccccc4)S3(=O)=O)c(F)c2)CC1` (single isomer, unassigned) [Example 248, 1-(4-(4-((2,2-dioxido-3-phenylhexahydro-cyclopenta[c][1,2]thiazin-1(3H)-yl)methyl)-3-fluorophenyl)piper-azin-1-yl)ethanone] showed an IC50 of 7 nM. In the case of `CS(=O)(=O)N1CCC(Nc2ccc(CN3CC4(CC4)CC(c4ccccc4)S3(=O)=O)c(F)c2)CC1` (single isomer, unassigned) [Example 249, 5-(2-fluoro-4-((1-(methylsulfonyl)piperidin-4-yl)amino)benzyl)-7-phenyl-6-thia-5-azaspiro[2.5]octane 6,6-dioxide], the IC50 is reported as 37 nM. In the case of `CC(=O)N1CCN(c2ccc(CN3C4CCCC4CC(c4ccccc4)S3(=O)=O)c(F)c2)CC1` (single isomer, unassigned) [Example 250, 1-(4-(4-((2,2-dioxido-3-phenylhexahydro-cyclopenta[c][1,2]thiazin-1(3H)-yl)methyl)-3-fluorophenyl)piper-azin-1-yl)ethanone], the IC50 is reported as 11 nM. In the case of `CC(=O)N1CCN(c2ccc(CN3C4CCCC4CC(c4ccccc4)S3(=O)=O)c(F)c2)CC1` (single isomer, unassigned) [Example 251, 1-(4-(4-((2,2-dioxido-3-phenylhexahydro-cyclopenta[c][1,2]thiazin-1(3H)-yl)methyl)-3-fluorophenyl)piper-azin-1-yl)ethanone], the IC50 is reported as 219 nM.
